# Data from patent US6509377B1, “Use of a 2-hydroxy-4-trifluoromethylbenzoic acid derivatives as inhibitors of the activation of the nuclear transcription factor NF-κB” (J. Uriach & Cia, S.A., priority 1999, dated 2003).
# Assays:
# [1] = Cell viability of 143.98.2 cells (EZ4U); assay type: cell-based; conditions: human, read-out: Percentage of cell viability
# Method: (§1) Several cell lines obtained from the American Type Culture Collection (ATCC) were cultured at 37° C. and under a 5% CO2 atmosphere. Each cell line was grown in an appropriate culture medium and within the exponential phase (Table I).
# (§2) For the cell viability studies 24-well plates were used, where 0.5×10^6 cells/ml (for 24-hour studies), 0.25×10^6 cells/ml (for 48-hour studies) or 0.125×10^6 cells/ml (for 72-hour studies) were incubated. Next, different concentrations of HTB (1-3 mM) were added and cells were incubated for different time periods (37° C., 5% CO2). After incubation, the supernatant from each well was extracted, and cells were washed with culture medium without fetal calf serum. Then, the supernatant was extracted and 200 μl culture medium without fetal calf serum were added to each well. In addition, 20 μl substrate were added to determine cell viability. This method is based on the ability of viable cells to transform the colourless substrate into a coloured substance that is excreted to the supernatant (EZ4U, Biomedica Gmbh.). After incubating cells for 1 hour at 37° C. and 5% CO2, 200 μl supernatant were collected and the absorbance was measured at 450 nm.
# (§3) The absorbance was also determined at 620 nm as a measure of the existing non-specific value.
# [2] = system: human peripheral blood mononuclear cells (PBMC); experiment: Cell viability controls of human PBMC (MTT assay); assay type: cell-based; conditions: Example 3, HTB 1-3 mM with LPS, 3 mM without LPS
# Method: Prior to the various treatments, cell viability was determined by the Trypan Blue exclusion assay. Cells were diluted at a concentration of 2.5 million/ml with RPMI medium containing 10% fetal calf serum and were incubated (37° C., 5% CO2) 1 hour in 6-well plates (2 ml/well, 5 million PBMC) without adding any drug (control) or adding HTB (1-3 mM). Next, cells were incubated for further 10 minutes in the presence of 10 μg/ml E.coli lipopolysaccharide (LPS, 026:B6 serotype; Sigma). After incubation, a sample (100 μl) was taken in order to carry out a cell count as well as cell viability controls by measuring the ability of mitochondrial dehydrogenases to convert the soluble tetrazolium salt, MTT the insoluble product formazan (MTT assay). Cells were also incubated with HTB (3 mM) in the absence of LPS. In all cases, cell viability was equal to or higher than 95%.
# Cells were diluted at a concentration of 2.5 million/ml with RPMI medium containing 10% fetal calf serum and were incubated (37° C., 5% CO2) 19 hours in 6-well plates (2 ml/well, 5 million PBMC). Incubations were carried out in the presence of 10 μg/ml E.coli lipopolysaccharide (LPS, 026:B6 serotype; Sigma) without adding any drug (control) or adding Triflusal or HTB (0.1-5 mM). Prior to incubations, cell viability controls were performed using the Trypan Blue exclusion assay. […]
# [3] = Cell viability of Jurkat cells (EZ4U); assay type: cell-based; conditions: human, Jurkat cells (acute T cell leukemia), read-out: Percentage of cell viability
# Method: as §1, §2, §3
# [4] = Adjuvant-induced arthritis in the rat; assay type: in vivo; conditions: 10 mg/kg p.o. daily for 28 days, day 28
# Method: Adjuvant-induced arthritis is characterized by the development, from day 14 after adjuvant injection, of a chronic inflammation of immunological origin in several joints, with accumulation of inflammatory cells and release of cytokines. For this study, male Lewis rats with body weight between 100 and 150 g were used. Before the start of the study animals were acclimated for a period of at least 5 days. Animals were fasted for 18 hours before the study, with water ad libitum. Throughout the study, animals were allowed free access to drinking water, except during observation periods. Groups of five animals were randomized (Sham, Control and Triflusal). The duration of the study was 28 days. Arthritis was induced on day 1 of the study by subplantar administration of 0.1 ml of an emulsion formed with 10 mg M. butyricum and 10 ml Freund's incomplete adjuvant (Difco) to the right hindpaw of the animals from the Control and Triflusal groups. Sham animals received 0.1 ml Freund's incomplete adjuvant. […] On day 28 of the development of arthritis, the volume of the contralateral paw to that receiving the adjuvant injection was determined using a UGO BASILE 7150 plethysmometer. The inhibition of the increase in volume was calculated as follows: % Inh.=100−((T-S)/(C-S))*100 Where: T=Triflusal group; C=Control group; and S=Sham group
# NF-κB = NF-κB activation in brain cells of post-natal Long Evans black-hooded rats (NMDA lesion); assay type: in vivo, rat
# Method: This study was carried out using post-natal (P9) Long Evans black-hooded rats. Each group consisted of 6 animals subjected to an experimental lesion, plus two control animals of the same age. The experimental lesion was induced by intracortical injection (sensorimotor area) of N-methyl-D-aspartate (NMDA), which causes a marked local neuronal degeneration. Triflusal (30 mg/kg) was administered orally in three doses (from day 7 to 9) every 24 hours. Glial reactivity was induced by NMDA injection at postnatal day 9, one hour after the last triflusal dose. At different times (2-24 h) after this last dose, animals were killed, brains were extracted and cut in a cryostat and sections were processed using immunocytochemical and histochemical techniques to determine NF-κB activation in microglia and astroglia using double staining: NF-κB-lectin and NF-κB-GFPA. In parallel, slices were cut on a vibratome to determine the degree of microglial and astroglial reactivity by histoenzymatic techniques (B. Castellano et al., J.Histochem. Cytochem., 1991, 39(5), 561-568).
structure (smiles),measurement,setting,value
"O=C(O)c1ccc(C(F)(F)F)cc1O [HTB, 2-hydroxy-4-trifluoromethylbenzoic acid]","viability at 0 h, 1 mM","[1]; 143.98.2 cells (osteosarcoma), 1 mM HTB, 0 hours",100%
same,"viability at 2 h, 1 mM","[1]; 143.98.2 cells (osteosarcoma), 1 mM HTB, 2 hours",100%
same,"viability at 5 h, 1 mM","[1]; 143.98.2 cells (osteosarcoma), 1 mM HTB, 5 hours",100%
same,"viability at 24 h, 1 mM","[1]; 143.98.2 cells (osteosarcoma), 1 mM HTB, 24 hours",93.9%
same,"viability at 48 h, 1 mM","[1]; 143.98.2 cells (osteosarcoma), 1 mM HTB, 48 hours",83.2%
same,"viability at 72 h, 1 mM","[1]; 143.98.2 cells (osteosarcoma), 1 mM HTB, 72 hours",50.4%
same,"viability at 0 h, 3 mM","[1]; 143.98.2 cells (osteosarcoma), 3 mM HTB, 0 hours",100%
same,"viability at 2 h, 3 mM","[1]; 143.98.2 osteosarcoma cells, 3 mM HTB, 2 hours",98.1%
same,"viability at 5 h, 3 mM","[1]; 143.98.2 osteosarcoma cells, 3 mM HTB, 5 hours",82.7%
same,"viability at 24 h, 3 mM","[1]; 143.98.2 osteosarcoma cells, 3 mM HTB, 24 hours",52.2%
same,"viability at 48 h, 3 mM","[1]; 143.98.2 osteosarcoma cells, 3 mM HTB, 48 hours",16.1%
same,cell viability,[2],≥ 95%
same,"viability at 0 h, 1 mM","[3]; 1 mM HTB, 0 hours",100%
same,"viability at 2 h, 1 mM","[3]; 1 mM HTB, 2 hours",100%
same,"viability at 5 h, 1 mM","[3]; 1 mM HTB, 5 hours",76.8%
same,"viability at 24 h, 1 mM","[3]; 1 mM HTB, 24 hours",11.3%
same,"viability at 48 h, 1 mM","[3]; 1 mM HTB, 48 hours",3.6%
same,"viability at 72 h, 1 mM","[3]; 1 mM HTB, 72 hours",1.6%
same,"viability at 0 h, 3 mM","[3]; 3 mM HTB, 0 hours",100%
same,"viability at 2 h, 3 mM","[3]; 3 mM HTB, 2 hours",100%
same,"viability at 5 h, 3 mM","[3]; 3 mM HTB, 5 hours",62.6%
same,"viability at 24 h, 3 mM","[3]; 3 mM HTB, 24 hours",6.2%
same,"viability at 48 h, 3 mM","[3]; 3 mM HTB, 48 hours",5.4%
"CC(=O)Oc1cc(C(F)(F)F)ccc1C(=O)O [triflusal, 2-Acetyloxy-4-trifluoromethylbenzoic acid, reference compound]",inhibition of the increase in volume of the contralateral paw,[4],63.1±8.0%
same,NF-κB activation in astroglial and microglial cells after NMDA excitotoxic lesion,NF-κB; 30 mg/kg p.o. pretreatment,completely inhibited
same,basal (constitutive) NF-κB activation in cortical neurons of control animals,"NF-κB; triflusal 30 mg/kg orally, three doses every 24 hours",inhibited
